Like-named read-outs stand apart in the source and are kept apart here.

The text below walks through data of patent US12655139B2, “Isoxazolidines as RIPK1 inhibitors and use thereof” (SANOFI, priority 2020, dated 2026).

Data set [1] is described as follows: Pharmacokinetic studies in mice, oral application. The note with it: male, C57BL/6, brain / plasma, mouse. In kind it is in vivo. On the procedure:
Pharmacokinetic Studies in Mice
A suspension of the respective test articles (30 mg/kg, 10 ml/kg, 3 mg/ml) was prepared in 0.6% methyl cellulose (MC) by thorough mixing of the fine solid with the freshly made and filtered MC solution and administered to 24 non-fasted male C57BL/6 mice (20-25 g) by gavage. Terminal blood sampling (with the addition of K2-EDTA) was performed at 0.25, 0.5, 1, 2, 4, 6, 8 and 24 h post admin. Plasma was generated by centrifugation and deep-frozen (−20° C.). In addition, after 2 h, brain and liver were removed from the respective 3 mice. Additional plasma was collected from terminal blood. The organs were pooled, homogenized and the homogenate extracted with an acetonitrile-water mixture prior to measurement by HPLC-MS/MS. The brain/plasma ratio was determined at 2 h by dividing the brain concentration at 2 h through the respective value for the plasma concentration at 2 h.
Ex. 004: 21 mice were used in the study, without the 6 h sampling time. The same study design was applied.
A suspension of the respective test articles (30 mg/kg, 10 ml/kg, 3 mg/ml) was prepared in freshly prepared and filtered 0.6% methyl cellulose solution by wet-milling using Retsch MM 301 mixer mill (10 min, room temperature) and administered to 6 non-fasted male C57BL/6 mice (20-25 g) by gavage. Serial sampling of blood (with the addition of K3-EDTA) was performed at 0.25, 0.5, 1, 2, 4, 6, 8 and 24 h post admin. The blood samples were diluted (10 μl blood were added to a mixture of 90 μl 25% acetonitrile in water) and deep-frozen (−20° C.). After 2 h, 3 of the 6 animals were sacrificed and brain and liver taken off. Additional plasma was prepared from terminal blood. The organs were homogenized and the homogenate extracted with an acetonitrile-water mixture prior to measurement by HPLC-MS/MS. The brain/plasma ratio was determined at 2 h by dividing the brain concentration at 2 h through the respective value for the plasma concentration at 2 h.

Data set [2] in a line: Pharmacokinetic studies in mice, intravenous application with non-serial sampling. It is filed as in vivo. On the procedure:
Intravenous Application with Non-Serial Sampling Compound K
A solution of the respective test articles (3 mg/kg, 5 mL/kg, 0.6 mg/mL) was prepared by dissolving the solids in 7.5% N-Methyl pyrrolidon followed by addition of 60% PEG200 and 32.5% water for injection. Intravenous administration to 24 (3×8, groups per time) non-fasted male C57BL/6 mice (20-25 g) followed immediately after preparation. Terminal blood sampling (with the addition of K2-EDTA) was performed at 0.083, 0.25, 0.5, 1, 2, 4, 8 and 24 h post admin. Plasma was generated by centrifugation and deep-frozen (−20° C.). In addition, brain and liver were removed from all animals. The organs were pooled per time group, homogenized and the homogenate extracted with an acetonitrile-water mixture prior to measurement by HPLC-MS/MS. The brain/plasma ratio was determined by dividing the brain concentration through the respective value for the plasma concentration at the same sampling time.

Data set [3] is described as follows: Intravenous application to cynomolgus monkeys, side effects and histopathology. In kind it is in vivo, cynomolgus monkey. The note with it: 1 mg/kg, i.v.
The conditions of data set [4]: monkeys, doses ≥100 mg/kg; cited from earlier work.
Data set [5] concerns the target T1, hRIPK1 (aa 1-375) fusion protein (Homo sapiens, UniProt Q13546).
T1 construct: hRIPK1 (aa 1-375) fusion protein
T1 sequence (Q13546 1-375): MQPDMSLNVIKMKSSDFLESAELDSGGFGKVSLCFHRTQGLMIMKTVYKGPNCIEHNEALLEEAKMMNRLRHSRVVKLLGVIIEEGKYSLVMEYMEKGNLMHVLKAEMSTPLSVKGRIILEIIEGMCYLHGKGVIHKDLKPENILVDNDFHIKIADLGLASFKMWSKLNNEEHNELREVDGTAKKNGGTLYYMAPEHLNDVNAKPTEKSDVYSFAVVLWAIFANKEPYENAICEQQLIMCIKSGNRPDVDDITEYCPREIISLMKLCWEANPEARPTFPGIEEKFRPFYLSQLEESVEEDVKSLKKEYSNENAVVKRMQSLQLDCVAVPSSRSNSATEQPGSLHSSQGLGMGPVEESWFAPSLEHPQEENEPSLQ
Description: ADP-Glo kinase assay, RIPK1 autophosphorylation. It is filed as biochemical.

In data set [6] the test system is U937 cells. Description: Cellular assay in U937 cells on cell death (necroptosis), TNFα/zVAD.fmk. It is filed as cell-based. The note with it: Homo sapiens. The gist of the method:
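U937 cells with 100 ng/ml TNFα plus 50 μM zVAD.fmk (pre-addition suspension levels) received 10 compound concentrations (10 μM–0.26 nM or 1 μM–0.07 nM) for 18–24 h at 37 °C. Live cells were read by MTS formazan absorbance at 490 nm after 4 h. % inhibition is relative to the maximal value without TNFα/zVAD.fmk.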

Data set [7] relates to U937 cells. The note with it: Comparator table 5; data from P.A. Harris et al. J Med Chem 2019, 62, 5096; cited from earlier work.
[8] abbreviates: U-937, Comparator table 5, read-out: U937 IC50 (uM) Mean.
The mark [9] stands for this setting: 2 h, oral 30 mg/kg, read-out: Mouse PK brain/blood ratio.
Setting [10] is: U-937, Table 2, read-out: U937 IC50.

With `COc1cc(N2CCC(C(=O)N3OCC[C@H]3c3cc(F)cc(F)c3)CC2)ncn1` [comparator compound K, [1-(6-Methoxypyrimidin-4-yl)-4-piperidyl]-[(3S)-3-(3,5-difluorophenyl)isoxazolidin-2-yl]methanone], in data set [1] (2 h after oral application of 30 mg/kg, read-out: brain/plasma ratio), the Kp at 2 h is 1.6. Moreover, in data set [2] (male, C57BL/6, brain / plasma, iv, mouse, 15 min after i.v. application of 3 mg/kg, read-out: brain/blood ratio), the Kp at 15 min came to 2.1. The concentration at 15 min in data set [2] (male, C57BL/6, brain, iv, mouse, 15 min after i.v. application of 3 mg/kg, read-out: brain levels) came to 1580 ng/mL. For the same compound, in data set [3], the histopathological examination entry was “bilateral and symmetrical lesions of brain necrosis”; the side effects entry is given as “severe side effects”.

For the compound `CN1C(=O)[C@@H](NC(=O)c2nnc(Cc3ccccc3)[nH]2)COc2ccccc21` [GSK2982772], the central side effects result in data set [4] was “irregular gait and uncoordinated movement”.

For `COc1cc(N2CCC(C(=O)N3OCC[C@H]3c3cc(F)cc(F)c3)CC2)ncn1` [K, reference compound], the concentration for half-maximal inhibition (IC50) was 18 nM in data set [5] (Comparator table 5) and 0.01 µM in data set [6] (setting [8]). Further, the “Mouse PK brain/blood ratio” value in data set [2] (15 min, i.v. 3 mg/kg) is reported as 2.1 (15 min i.v. 3 mg/kg).

For the compound `NC(=O)c1cc(N2CCC(C(=O)N3OCC[C@H]3c3cc(F)cc(F)c3)CC2)ncn1` [D, reference compound], the IC50 in data set [5] (Comparator table 5) came to 10 nM; in data set [6] (setting [8]), 0.004 µM. In addition, the Kp at 2 h in data set [1] (setting [9]) stood at 1.1.

On to `N#Cc1cc(N2CCC(C(=O)N3N=CC[C@H]3c3cc(F)cc(F)c3)CC2)ncn1` [G, reference compound], for which the IC50 in data set [6] (setting [8]) came out at 0.002 µM. Moreover, the Kp at 2 h in data set [1] (setting [9]) is 1.5.

Take `CC(C)(C)C(=O)N1N=CC[C@H]1c1cc(F)cc(F)c1` [H]: the IC50 in data set [7] is 0.006 µM.

Take `N#Cc1cc(N2CCC(C(=O)N3OCC[C@H]3c3cc(F)cc(F)c3)CC2)ncn1` [A, reference compound]: the IC50 was found to be 12 nM in data set [5] (Comparator table 5) and 0.003 µM in data set [6] (setting [8]). Also, the Kp at 2 h in data set [1] (setting [9]) came out at 0.82.

For `Cc1ncc([C@@H]2CCON2C(=O)C2CCN(c3cc(C#N)ncn3)CC2)cc1F` [compound 138, (S)-6-(4-(3-(5-fluoro-6-methylpyridin-3-yl)isoxazolidine-2-carbonyl)piperidin-1-yl)pyrimidine-4-carbonitrile], the values for the IC50 in data set [5] (Table 1) and in data set [6] (setting [10]) were 28.1 nM and 0.0972 µM, respectively.

As to `Cc1c(F)cncc1[C@@H]1CCON1C(=O)C1CCN(c2cc(C(N)=O)ncn2)CC1` [compound 142, (S)-6-(4-(3-(5-fluoro-4-methylpyridin-3-yl)isoxazolidine-2-carbonyl)piperidin-1-yl)pyrimidine-4-carboxamide], the IC50 in data set [5] (Table 1) amounted to 407 nM; in data set [6] (setting [10]), 3 µM.

Regarding `N#Cc1cncc([C@@H]2CCON2C(=O)[C@@H]2CCN(c3nccc(C(N)=O)n3)C[C@@H]2F)c1` (single isomer, unassigned) [Ex. 095], the IC50 in data set [5] (Table 1) amounted to 30.5 nM; in data set [6] (setting [10]), 0.12 µM.

As for `CC1(C(=O)N2OCC[C@H]2c2cncnc2)CCN(c2nccc(C(N)=O)n2)CC1` [Ex. 061], the values for the IC50 in data set [5] (Table 1) and in data set [6] (setting [10]) were 39.1 nM and 0.256 µM, respectively.

As for `CCOC(=O)N1CC(NC(=O)c2ccnc(N3CCC(C(=O)N4OCC[C@H]4c4cncc(C#N)c4)CC3)n2)C1` [Ex. 088], the IC50 is 33.6 nM in data set [5] (Table 1) and 0.158 µM in data set [6] (setting [10]).

Regarding `N#Cc1cc([C@@H]2CCON2C(=O)C2CCN(c3ncc(F)c(C(N)=O)n3)CC2)cs1` [Ex. 166], the IC50 in data set [5] (Table 1) stood at 37.2 nM; in data set [6] (setting [10]) it was 0.0597 µM.

For the compound `NC(=O)c1nc(N2CCC(C(=O)N3OCC[C@H]3c3cnccn3)CC2)ncc1F` [compound 75], the IC50 in data set [5] (Table 1) was found to be 8.46 nM; in data set [6] (setting [10]), 0.00273 µM.

For `NC(=O)c1ccnc(N2CCC(C(=O)N3OCCC3c3ccc(N)nc3)CC2)n1` (racemic) [Ex. 036*], the IC50 was 48.9 nM in data set [5] (Table 1) and 0.198 µM in data set [6] (setting [10]).
